What was measured:
[1] = tested on: green algae Chlamydomonas reinhardtii (CC-125); experiment: Algal fluorescence inhibition (Vj) measured with the commercial Handy-PEA fluorometer; type: cell-based; details: Handy-PEA commercial system, 1×10^6 cell/ml algal culture, same experimental conditions, read-out: concentration of DCMU inhibiting 50% of the algae photochemistry (EC50), evaluated with Vj
Procedure: According to the experimental evaluation using the test apparatus, pollutant detection measurements, a 1×10^6 cell/ml green algal culture was used. Different concentrations of Diuron or DCMU (3(3,4-dichlorophenyl)-1,1-dimethylurea from Aldrich) were prepared in pure ethanol. For each measurement, 30 μL of DCMU was mixed with 2 mL of algal solution. The mixtures were exposed for 30 min under a 100 μmol·m-2·s-1 light intensity, and then dark adapted for 15 min before being injected into the microfluidic chip with a syringe pump to fully fill a microfluidic chamber (around 10 μL). Algal exposure to ethanol concentration used in this study (without DCMU) had no effect on the fluorescence measurements (data not shown). Each measurement was replicated three times. […]
According to the experimental evaluation using the test apparatus, Handy-PEA fluorometer (Hansatech Ltd.) was used as the commercial available equipment to be compared with the microfluidic sensor. […] Fluorescence emission was detected for wavelengths over 700 nm.
According to the experimental evaluation using the test apparatus, from this kinetic of the fluorescence signal, it is possible to extract several parameters representing physiological processes. […] The relative variable fluorescence at 2 ms Vj is very sensitive to Diuron as it is proportional to reaction centers closed at 2 ms. […]

Algae culture CC125 = experiment: Oxygen concentration measurement with the nanofilament electrical detector in a microfluidic channel; type: cell-based, Chlamydomonas reinhardtii; details: 1 μM Diuron; CC125 5M cell/ml; -0.6V between working and reference electrode
Procedure: According to an experimental evaluation, in order to measure the oxygen level, the electrodes making up the electrical detector are integrated in a glass microfluidic channel, and aligned on an OLED. Algae culture CC125 (5M cell/ml concentration) is injected in the microfluidic channel, the oxygen measure being continuously taken through applying-0.6V between the working electrode and the reference electrode. A Diuron concentration of 1 uM is added to the algae culture before the injection into the chip and the measuring. Standard measures of 1 uM of pollutant were made in triplicate.
Oxygen variation of algae, which is the combination of both production and breathing of algae, can therefore be linked to the pollutant concentration contained in the analyte. In order to measure oxygen production, this detector is also composed of the same organic light source used by the fluorescence detector (OLED.
FIG. 22A refers to oxygen concentration levels measured with the electrical detector for 1 μM of Diuron and with a reference (that has not been exposed to Diuron).

[2] = tested on: green algae Chlamydomonas reinhardtii (CC-125); experiment: Algal fluorescence inhibition (F25m) measured with the microfluidic OLED/OPD test apparatus; type: cell-based; details: 1×10^6 cell/ml algal culture
Procedure: According to an experimental evaluation using the test apparatus, green algae Chlamydomonas reinhardtii (CC-125) was cultivated in 250 mL Erlenmeyer flasks in High Salt Medium (HSM) with the adjusted pH=6.8±0.1. The algae were grown at 25° C. under a light intensity of 100 μmol·m-2·s-1 provided by white-light neon lamps and a 16 h-light/8 h-dark cycle. Cells were maintained continuously in the mid-exponential growth phase (up to 4×10^6 cell/ml) before experiments. To measure the minimum density of algae that can be detected, successive dilutions of a 3×10^6 cell/ml algal culture were prepared in HSM. These solutions were dark adapted for 15 min before fluorescence measurement in order to reoxidize photosystem II reaction centers.
According to the experimental evaluation using the test apparatus, pollutant detection measurements, a 1×10^6 cell/ml green algal culture was used. […] Algal exposure to ethanol concentration used in this study (without DCMU) had no effect on the fluorescence measurements (data not shown). […]
It was noticed that the injection of the pollutant changes fluorescence kinetics. An increase in the fluorescence signal for the first 100 ms, proportional to the pollutant concentration was observed. DCMU induced this fluorescence increase because it blocks the electron transfer in PSII. […]

CN(C)C(=O)Nc1ccc(Cl)c(Cl)c1 [Diuron, 3(3,4-dichlorophenyl)-1,1-dimethylurea]
EC50 [1]: 220 nM
decrease in total oxygen production from algae (Algae culture CC125): about 26%
lowest concentration tested that gave a significant difference with the control algae for the Finh parameter ([2]; 30 min of light exposure): 7.5 nM
EC50 ([2]; Chlamydomonas reinhardtii, test apparatus, 30 min light exposure, 15 min dark adaptation, read-out: concentration of DCMU inhibiting 50% of the algae photochemistry (EC50), evaluated with F25m): 11 nM
